Assay results reported in US9221864B2, “Tricyclic nucleic acid analogs” (Isis Pharmaceuticals, Inc., priority 2012, dated 2015).

Legend:
Type in all cases: binding
[1] = system: matched DNA complement 5′-d(AGCAAAXAACGC)-3′, X=A; experiment: Thermal stability (Tm) of 12mer oligomeric compounds duplexed to matched DNA complement; conditions: relative to unmodified DNA 12mer ISIS 438705; 1.2 μM, 10 mM sodium phosphate buffer pH 7.2, 100 mM NaCl, 0.1 mM EDTA
Description: (§1) The oligomeric compounds in Table 1 were evaluated for thermal stability (Tm) using the method described herein. The Tm of the modified 12mer oligomeric compounds were compared to an unmodified 12mer DNA oligonucleotide when duplexed to either the matched or mismatched RNA complement.
(§2) Tm's were determined using a Cary 100 Bio spectrophotometer with the Cary Win UV thermal program was used to measure absorbance vs. temperature. For the Tm experiments, the oligomeric compounds were prepared at a concentration of 1.2 μM in 10 mM sodium phosphate buffer (pH 7.2) containing 100 mM NaCl and 0.1 mM EDTA. The concentrations, determined at 85° C. was 1.2 μM after mixing of equal volumes of selected oligomeric compound and complementary matched or mismatched RNA. The oligomeric compounds were hybridized with a complimentary matched or mismatched RNA by heating the duplex to 90° C. for 5 minutes and then cooling to room temperature. Tm measurements were taken using a spectrophotometer while the duplex solution was heated in a cuvette at a rate of 0.5° C./min starting at 15° C. until the temperature was 85° C. Tm values were determined using Vant Hoff calculations (A260 vs temperature curve) using non self-complementary sequences where the minimum absorbance related to the duplex and the maximum absorbance related to the non-duplex single strand are manually integrated into the program. Mismatched thermal stability was also measured and calculated by subtracting values of Tm measured vs the mismatched RNA complement from values of Tm vs the matched RNA complement for each modification.
(§3) The sequence for matched DNA complement is designated herein as SEQ ID No.: 6, 5′-d(AGCAAAXAACGC)-3′, wherein X=A. The sequence for matched RNA complement is designated herein as SEQ ID No.: 6, 5′-r(AGCAAAYAACGC)-3′, wherein Y=A. The mismatched RNA complement sequence is designated herein as SEQ ID No.: 7, 5′-r(AGCAAAZAACGC)-3′, wherein Z=G, C or U.

[2] = system: matched RNA complement 5′-r(AGCAAAYAACGC)-3′, Y=A; experiment: Thermal stability (Tm) of 12mer oligomeric compounds duplexed to matched RNA complement; conditions: relative to unmodified DNA 12mer ISIS 438705; 1.2 μM, 10 mM sodium phosphate buffer pH 7.2, 100 mM NaCl, 0.1 mM EDTA
Description: as §1, §2, §3

[3] = system: mismatched RNA complement 5′-r(AGCAAAZAACGC)-3′, Z=G; experiment: Mismatch discrimination (Tm) vs mismatched RNA complement, Z=G; conditions: 1.2 μM, 10 mM sodium phosphate buffer pH 7.2, 100 mM NaCl, 0.1 mM EDTA
Description: as §1, §2, §3

[4] = system: mismatched RNA complement 5′-r(AGCAAAZAACGC)-3′, Z=C; experiment: Mismatch discrimination (Tm) vs mismatched RNA complement, Z=C; conditions: 1.2 μM, 10 mM sodium phosphate buffer pH 7.2, 100 mM NaCl, 0.1 mM EDTA
Description: as §1
as §2, with “Mismatched thermal stability was also measured and calculated by subtracting values of Tm measured vs the mismatched RNA complement from values of Tm vs the matched RNA complement for each modification.” left out
as §3

[5] = system: mismatched RNA complement 5′-r(AGCAAAZAACGC)-3′, Z=U; experiment: Mismatch discrimination (Tm) vs mismatched RNA complement, Z=U; conditions: 1.2 μM, 10 mM sodium phosphate buffer pH 7.2, 100 mM NaCl, 0.1 mM EDTA
Description: as §1
as §2, with “Mismatched thermal stability was also measured and calculated by subtracting values of Tm measured vs the mismatched RNA complement from values of Tm vs the matched RNA complement for each modification.” left out
as §3

A01: 12mer GCGTTTbTTTGCT with one α-L-TriNA (α-L-tricyclic nucleic acid) nucleoside, phosphodiester linkages, SEQ ID No. 5 (DNA GCGTTT_{b}TTTGCT; as printed in the source, key not given here) [Compound A01]
ΔTm/mod vs DNA, Matched, X = A [1]: +2.6 °C | ΔTm/mod vs RNA, Matched, Y = A [2]: +7.1 °C | ΔTm/mod vs RNA, Mismatched, Z = G; Mismatched Discrimination [Tm(mismatched) − Tm(matched)] [3]: −5.5 °C | ΔTm/mod vs RNA, Mismatched, Z = C; Mismatched Discrimination [Tm(mismatched) − Tm(matched)] [4]: −16.7 °C | ΔTm/mod vs RNA, Mismatched, Z = U; Mismatched Discrimination [Tm(mismatched) − Tm(matched)] [5]: −17.0 °C

ISIS 438705: unmodified 12mer DNA GCGTTTTTTGCT, phosphodiester linkages, SEQ ID No. 5, purchased from commercial sources (unmodified DNA)
ΔTm/mod vs DNA, Matched, X = A [1]: 0 (ref) ° C. | ΔTm/mod vs RNA, Matched, Y = A [2]: 0 (ref) ° C. | ΔTm/mod vs RNA, Mismatched, Z = G; Mismatched Discrimination [Tm(mismatched) − Tm(matched)] [3]: −4.1 °C | ΔTm/mod vs RNA, Mismatched, Z = C; Mismatched Discrimination [Tm(mismatched) − Tm(matched)] [4]: −13.0 °C | ΔTm/mod vs RNA, Mismatched, Z = U; Mismatched Discrimination [Tm(mismatched) − Tm(matched)] [5]: −13.2 °C

ISIS 438707: 12mer GCGTTT1TTTGCT with one LNA nucleoside, phosphodiester linkages, SEQ ID No. 5 (DNA GCGTTT_{1}TTTGCT; as printed in the source, key not given here)
ΔTm/mod vs DNA, Matched, X = A [1]: +1.7 °C | ΔTm/mod vs RNA, Matched, Y = A [2]: +5.5 °C | ΔTm/mod vs RNA, Mismatched, Z = G; Mismatched Discrimination [Tm(mismatched) − Tm(matched)] [3]: −5.4 °C | ΔTm/mod vs RNA, Mismatched, Z = C; Mismatched Discrimination [Tm(mismatched) − Tm(matched)] [4]: −15.4 °C | ΔTm/mod vs RNA, Mismatched, Z = U; Mismatched Discrimination [Tm(mismatched) − Tm(matched)] [5]: −13.7 °C

ISIS 560180: 12mer GCGTTTaTTTGCT with one α-L-LNA nucleoside, phosphodiester linkages, SEQ ID No. 5 (DNA GCGTTT_{a}TTTGCT; as printed in the source, key not given here)
ΔTm/mod vs DNA, Matched, X = A [1]: +1.4 °C | ΔTm/mod vs RNA, Matched, Y = A [2]: +5.7 °C | ΔTm/mod vs RNA, Mismatched, Z = G; Mismatched Discrimination [Tm(mismatched) − Tm(matched)] [3]: −4.7 °C | ΔTm/mod vs RNA, Mismatched, Z = C; Mismatched Discrimination [Tm(mismatched) − Tm(matched)] [4]: −14.8 °C | ΔTm/mod vs RNA, Mismatched, Z = U; Mismatched Discrimination [Tm(mismatched) − Tm(matched)] [5]: −13.5 °C
